These results are taken from paper PMC10108347, “Heterobifunctional Ligase Recruiters Enable pan-Degradation of Inhibitor of Apoptosis Proteins” (Journal of Medicinal Chemistry, 2023).

Data set [1] deals with T1, plasma protein (HSA column) (Homo sapiens, UniProt P02768).
T1 construct: purchased
Kind of data set: Plasma protein binding estimated by HPLC on a […] HSA column. The class given is in vitro ADME. The following applies: CHIRALPAK HSA column (50 × 3 mm, 5 μm), estimated by an HPLC-based method, read-out: PPB (plasma protein binding) (converted). As for the experimental part: Plasma protein binding (% PPB) was estimated by correlating the logarithmic retention times of the analytes on a […] HSA 50 × 3 mm, 5 μm column with the literature-known % PPB values (converted into log K values) of the following drugs: warfarin, ketoprofen, budesonide, nizatidine, indomethacin, acetylsalicylic acid, carbamazepine, piroxicam, nicardipine, and cimetidine (for details, see Valko et al.).[67] The samples were dissolved in MeCN/DMSO 9:1 to achieve a final concentration of 0.5 mg/mL. Mobile phase A was 50 mM ammonium acetate adjusted to pH 7.4 with ammonia solution, while mobile phase B was iPrOH. The flow rate was set to 1.0 mL/min, the UV detector was set to 254 nm, and the column temperature was kept at 30 °C. After injecting 2 μL of the sample, a linear gradient from 100% A to 30% iPrOH in 5.4 min was applied. From 5.4 to 18 min, 30% iPrOH was kept, followed by switching back to 100% A in 1.0 min and a re-equilibration time of 6 min. With the aid of the calibration line (R^2 = 0.96), the log K values of new substances were calculated and converted to their % PPB values.

The nature of data set [2]: Log D7.4 measurement by chromatographic (fast-gradient HPLC) method. The settings on record: pH 7.4.
Experimental: The system was calibrated by plotting the retention times of six different drugs (atenolol, metoprolol, labetalol, diltiazem, triphenylene, and permethrin) versus their literature-known log D7.4 in a calibration line (R^2 = 0.99). Subsequently, the mean retention times of the analytes were taken to calculate their log D7.4 values with the aid of the calibration line. At least two independent measurements of each analyte were performed.
Data set [3] concerns the target XIAP (Homo sapiens, UniProt P98170). The data set is described as follows: Immunoblotting (western blot) quantification of XIAP levels in MM.1S cells. The settings on record: 16 h; for remaining activity at 0.1 µM: MM1.S.
Experimental: To evaluate the capability of our panel of hetero-PROTACs for E3 ligase degradation, VHL19, VHL30, CRBN, cIAP1, cIAP2, and XIAP levels were quantified by western blot analyses. […] SDS-PAGE was performed, and proteins were then transferred onto PVDF membranes. Blotted membranes were blocked with 5% milk in Tris-buffered saline/Tween20 (TBST). Primary antibodies were diluted in 5% BSA in TBST, and incubations were performed overnight at 4 °C. Secondary HRP-conjugated antibodies diluted in 5% milk were incubated for 1 h at room temperature. Detection of proteins on PVDF was carried out using the WesternBright ECL HRP substrate or the WesternBright Sirius HRP substrate (Advansta, San Jose, USA) and imaged with LAS 4000× (Fujifilm). Membranes were subjected to 10 min incubation with Restore Western Blot Stripping Buffer (Thermo Fisher Scientific, Waltham, USA), followed by TBST washes. After brief re-activation with methanol, the membranes were blocked, and further probing of proteins was carried out.
Quantification of blots was performed using ImageJ software (National Institutes of Health).
Data set [4] deals with IAPs (cIAP1, cIAP2, XIAP). Kind of data set: Immunoblotting of IAPs in MM.1S cells, overall degradation profile, time course and washout. Format: cell-based. The settings on record: 16 h, western blot, concentration (10 nM to 1 μM). As for the experimental part: Next, we examined the persistence of IAP degradation in MM.1S cells after a single exposure to 1 μM of 9 and subsequent removal of the compound. […] The reliance on CRL2^VHL was assessed with a neddylation inhibitor MLN4924, which blocks the activity of CRLs (Figure S13A).

In data set [5] the target is cIAP1 (Homo sapiens, UniProt Q13490). Kind of data set: Immunoblotting (western blot) quantification of cIAP1 levels in MM.1S cells. The following applies: MM1.S, 16 h.
Data set [6] concerns the target cIAP2 (Homo sapiens, UniProt Q13489). Kind of data set: Immunoblotting (western blot) quantification of cIAP2 levels in MM.1S cells. The settings on record: MM1.S, 16 h.
For data set [7], the target named is VHL30 (Homo sapiens, UniProt P40337). The data set is described as follows: Immunoblotting (western blot) quantification of VHL30 levels in MM.1S cells. The settings on record: MM1.S, 16 h.
Where [8] appears, read: read-out: %remaining protein XIAP, MM.1S cells, 16 h treatment at 0.1 μM, normalized to loading control and DMSO.
Setting [9] is: read-out: %remaining protein cIAP1, MM.1S cells, 16 h treatment at 0.1 μM, normalized to loading control and DMSO.
Setting [10] is: read-out: %remaining protein cIAP2, MM.1S cells, 16 h treatment at 0.1 μM, normalized to loading control and DMSO.
[11] abbreviates: read-out: %remaining protein VHL30, MM.1S cells, 16 h treatment at 0.1 μM, normalized to loading control and DMSO.
Setting [12] is: read-out: %remaining protein XIAP.
The mark [13] stands for this setting: read-out: %remaining protein cIAP1.
Where [14] appears, read: read-out: %remaining protein cIAP2.
[15] abbreviates: read-out: %remaining protein VHL30.

“Also recorded” adds a separate entry of the source. Like-named read-outs stand apart in the source and are kept apart here. Some results are limits rather than exact numbers.

Chain of XIAP (P98170 whole entry): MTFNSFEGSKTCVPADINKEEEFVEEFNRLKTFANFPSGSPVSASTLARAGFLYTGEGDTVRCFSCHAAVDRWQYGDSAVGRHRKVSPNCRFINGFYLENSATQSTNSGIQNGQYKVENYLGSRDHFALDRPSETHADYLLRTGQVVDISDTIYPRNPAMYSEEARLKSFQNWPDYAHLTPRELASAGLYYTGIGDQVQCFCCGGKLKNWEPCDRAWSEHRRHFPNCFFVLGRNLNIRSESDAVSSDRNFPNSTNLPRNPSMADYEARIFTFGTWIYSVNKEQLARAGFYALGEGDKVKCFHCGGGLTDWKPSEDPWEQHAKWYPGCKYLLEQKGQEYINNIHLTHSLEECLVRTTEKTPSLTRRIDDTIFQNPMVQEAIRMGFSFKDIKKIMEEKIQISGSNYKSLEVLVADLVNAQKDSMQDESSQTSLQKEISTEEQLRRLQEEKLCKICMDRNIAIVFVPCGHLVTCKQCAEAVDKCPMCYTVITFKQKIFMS
Chain of cIAP2 (Q13489 whole entry): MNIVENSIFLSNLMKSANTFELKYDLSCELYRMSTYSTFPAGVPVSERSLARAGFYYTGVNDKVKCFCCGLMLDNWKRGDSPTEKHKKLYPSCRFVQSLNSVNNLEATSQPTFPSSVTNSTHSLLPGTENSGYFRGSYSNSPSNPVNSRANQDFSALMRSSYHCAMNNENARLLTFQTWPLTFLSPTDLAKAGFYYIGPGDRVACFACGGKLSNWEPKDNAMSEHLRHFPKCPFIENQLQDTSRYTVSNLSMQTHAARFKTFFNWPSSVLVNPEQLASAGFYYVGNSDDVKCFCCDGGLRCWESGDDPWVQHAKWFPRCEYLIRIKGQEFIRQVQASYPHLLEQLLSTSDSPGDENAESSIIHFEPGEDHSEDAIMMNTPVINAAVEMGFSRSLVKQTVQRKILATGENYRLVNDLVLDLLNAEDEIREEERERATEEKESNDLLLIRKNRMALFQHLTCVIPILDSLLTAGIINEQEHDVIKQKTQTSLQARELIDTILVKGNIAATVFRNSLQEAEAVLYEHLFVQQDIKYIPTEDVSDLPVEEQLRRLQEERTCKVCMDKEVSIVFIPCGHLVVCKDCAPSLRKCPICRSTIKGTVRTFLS
T1 sequence (P02768 25-609): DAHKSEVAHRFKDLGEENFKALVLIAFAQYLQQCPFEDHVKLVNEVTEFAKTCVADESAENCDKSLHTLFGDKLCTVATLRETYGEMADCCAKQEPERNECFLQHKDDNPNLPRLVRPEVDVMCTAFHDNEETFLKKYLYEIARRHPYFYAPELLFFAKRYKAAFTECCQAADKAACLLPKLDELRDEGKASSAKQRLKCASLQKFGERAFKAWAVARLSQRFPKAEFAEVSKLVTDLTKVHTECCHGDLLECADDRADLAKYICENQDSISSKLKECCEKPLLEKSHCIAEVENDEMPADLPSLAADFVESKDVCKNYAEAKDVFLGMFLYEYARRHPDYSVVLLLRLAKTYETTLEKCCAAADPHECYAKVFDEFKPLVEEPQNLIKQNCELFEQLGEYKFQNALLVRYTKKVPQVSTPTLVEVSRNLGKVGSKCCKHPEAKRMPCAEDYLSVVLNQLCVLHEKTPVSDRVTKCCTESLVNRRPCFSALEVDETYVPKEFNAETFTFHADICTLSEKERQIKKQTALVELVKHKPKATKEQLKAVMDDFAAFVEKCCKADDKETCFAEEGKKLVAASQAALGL
Chain of VHL30 (P40337 whole entry): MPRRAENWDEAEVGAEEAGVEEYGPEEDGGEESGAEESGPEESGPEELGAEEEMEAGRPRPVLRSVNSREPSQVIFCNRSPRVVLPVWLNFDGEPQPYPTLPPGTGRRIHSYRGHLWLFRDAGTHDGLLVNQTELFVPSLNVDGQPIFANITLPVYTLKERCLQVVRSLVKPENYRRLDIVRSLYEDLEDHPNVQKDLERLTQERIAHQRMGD
Chain of cIAP1 (Q13490 whole entry): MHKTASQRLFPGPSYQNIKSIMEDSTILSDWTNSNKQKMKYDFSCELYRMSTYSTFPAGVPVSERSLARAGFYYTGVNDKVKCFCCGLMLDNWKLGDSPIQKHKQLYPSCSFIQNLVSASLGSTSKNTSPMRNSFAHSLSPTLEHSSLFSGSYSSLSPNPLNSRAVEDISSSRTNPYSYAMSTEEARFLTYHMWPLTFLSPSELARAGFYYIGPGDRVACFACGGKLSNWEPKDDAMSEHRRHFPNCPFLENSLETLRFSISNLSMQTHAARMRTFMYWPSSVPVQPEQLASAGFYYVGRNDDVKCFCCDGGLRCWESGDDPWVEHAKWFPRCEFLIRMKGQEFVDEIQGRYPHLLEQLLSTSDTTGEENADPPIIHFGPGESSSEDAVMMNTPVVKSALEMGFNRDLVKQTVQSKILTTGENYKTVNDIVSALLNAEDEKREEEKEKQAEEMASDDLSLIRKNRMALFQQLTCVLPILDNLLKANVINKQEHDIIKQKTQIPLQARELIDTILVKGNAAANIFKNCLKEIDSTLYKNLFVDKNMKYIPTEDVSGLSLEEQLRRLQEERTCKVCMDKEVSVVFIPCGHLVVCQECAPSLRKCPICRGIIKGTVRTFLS

In the case of `CN[C@@H](C)C(=O)N[C@H](C(=O)N1CCC[C@H]1c1nc(C(=O)c2ccc(F)cc2)cs1)C1CCCCC1` [LCL161, reference compound], the fraction unbound at 0.5 mg/mL in data set [1] is 0.12. Also, in data set [2], the chromatographic logD came to 3.3. The “XIAP degradation (in words)” value in data set [3] (MM.1S cells, western blot, 0.1 or 1 μM) was “failed to degrade XIAP”.
Regarding `CC(=O)N(C)[C@@H](C)C(=O)N[C@H](C(=O)N1C[C@@H](Oc2cccc(OCCCCC(=O)N[C@H](C(=O)N3C[C@H](O)C[C@H]3C(=O)N[C@@H](C)c3ccc(-c4scnc4C)cc3)C(C)(C)C)c2)C[C@H]1C(=O)N[C@@H]1CCCc2ccccc21)C1CCCCC1` [PROTAC 10c, (2S,4S)-1-((S)-2-Cyclohexyl-2-((S)-2-(N-methylacetamido)propanamido)acetyl)-4-(3-((5-(((S)-1-((2S,4R)-4-hydroxy-2-(((S)-1-(4-(4-methylthiazol-5-yl)phenyl)ethyl)carbamoyl)pyrrolidin-1-yl)-3,3-dimethyl-1-oxobutan-2-yl)amino)-5-oxopentyl)oxy)phenoxy)-N-((R)-1,2,3,4-tetrahydronaphthalen-1-yl)pyrrolidine-2-carboxamide], the “IAP degradation profile (in words)” value in data set [4] was “inactivated PROTACs”. The remaining activity at 0.1 µM was 88% in data set [3] (setting [8]), 94% in data set [5] (setting [9]), more than 99% in data set [6] (setting [10]) and more than 99% in data set [7] (setting [11]).
As for `Cc1ncsc1-c1ccc([C@H](C)NC(=O)[C@@H]2C[C@@H](O)CN2C(=O)[C@@H](NC(=O)CCCCOc2cccc(O[C@H]3C[C@@H](C(=O)N[C@@H]4CCCc5ccccc54)N(C(=O)[C@@H](NC(=O)[C@H](C)N(C)C(=O)OC(C)(C)C)C4CCCCC4)C3)c2)C(C)(C)C)cc1` [PROTAC 10d, tert-Butyl ((S)-1-(((S)-1-Cyclohexyl-2-((2S,4S)-4-(3-((5-(((S)-1-((2S,4R)-4-hydroxy-2-(((S)-1-(4-(4-methylthiazol-5-yl)phenyl)ethyl)carbamoyl)pyrrolidin-1-yl)-3,3-dimethyl-1-oxobutan-2-yl)amino)-5-oxopentyl)oxy)phenoxy)-2-(((R)-1,2,3,4-tetrahydronaphthalen-1-yl)carbamoyl)pyrrolidin-1-yl)-2-oxoethyl)amino)-1-oxopropan-2-yl)(methyl)carbamate], the “IAP degradation profile (in words)” value in data set [4] is listed as “inactivated PROTACs”. Further, the remaining activity at 0.1 µM in data set [3] (setting [8]) is 87%; in data set [5] (setting [9]) it was 73%; in data set [6] (setting [10]), 88%; in data set [7] (setting [11]), more than 99%.
Regarding `CN[C@@H](C)C(=O)N[C@H](C(=O)N1C[C@@H](Oc2cccc(OCCCCCOc3cc(-c4scnc4C)ccc3CNC(=O)[C@@H]3C[C@@H](O)CN3C(=O)[C@H](C(C)C)N3Cc4ccccc4C3=O)c2)C[C@H]1C(=O)N[C@@H]1CCCc2ccccc21)C1CCCCC1` [PROTAC 12, (2S,4S)-1-((S)-2-Cyclohexyl-2-((S)-2-(methylamino)propanamido)acetyl)-4-(3-((5-(2-(((2S,4R)-4-hydroxy-1-((S)-3-methyl-2-(1-oxoisoindolin-2-yl)butanoyl)pyrrolidine-2-carboxamido)methyl)-5-(4-methylthiazol-5-yl)phenoxy)pentyl)oxy)phenoxy)-N-((R)-1,2,3,4-tetrahydronaphthalen-1-yl)pyrrolidine-2-carboxamide], the fraction unbound at 0.5 mg/mL in data set [1] was 0.04. In data set [2], this molecule displayed a chromatographic logD of 4. The remaining activity at 0.1 µM is 5% in data set [3] (setting [12]), 4% in data set [5] (setting [13]), 29% in data set [6] (setting [14]) and 55% in data set [7] (setting [15]).
As for `CN[C@@H](C)C(=O)N[C@H](C(=O)N1C[C@@H](Oc2cccc(OCCCCCCCCOc3cc(-c4scnc4C)ccc3CNC(=O)[C@@H]3C[C@@H](O)CN3C(=O)[C@H](C(C)C)N3Cc4ccccc4C3=O)c2)C[C@H]1C(=O)N[C@@H]1CCCc2ccccc21)C1CCCCC1` [PROTAC 13, (2S,4S)-1-((S)-2-Cyclohexyl-2-((S)-2-(methylamino)propanamido)acetyl)-4-(3-((8-(2-(((2S,4R)-4-hydroxy-1-((S)-3-methyl-2-(1-oxoisoindolin-2-yl)butanoyl)pyrrolidine-2-carboxamido)methyl)-5-(4-methylthiazol-5-yl)phenoxy)octyl)oxy)phenoxy)-N-((R)-1,2,3,4-tetrahydronaphthalen-1-yl)pyrrolidine-2-carboxamide], the fraction unbound at 0.5 mg/mL in data set [1] is 0.03. For the same molecule, the chromatographic logD in data set [2] was determined as 4.8. The remaining activity at 0.1 µM in data set [3] (setting [12]) is 5%; in data set [5] (setting [13]), 3%; in data set [6] (setting [14]), 15%; in data set [7] (setting [15]) it was 53%.
For `CN[C@@H](C)C(=O)N[C@H](C(=O)N1C[C@@H](Oc2cccc(OCCCCOCCCCOc3cc(-c4scnc4C)ccc3CNC(=O)[C@@H]3C[C@@H](O)CN3C(=O)[C@H](C(C)C)N3Cc4ccccc4C3=O)c2)C[C@H]1C(=O)N[C@@H]1CCCc2ccccc21)C1CCCCC1` [PROTAC 14, (2S,4S)-1-((S)-2-Cyclohexyl-2-((S)-2-(methylamino)propanamido)acetyl)-4-(3-(4-(4-(2-(((2S,4R)-4-hydroxy-1-((S)-3-methyl-2-(1-oxoisoindolin-2-yl)butanoyl)pyrrolidine-2-carboxamido)methyl)-5-(4-methylthiazol-5-yl)phenoxy)butoxy)butoxy)phenoxy)-N-((R)-1,2,3,4-tetrahydronaphthalen-1-yl)pyrrolidine-2-carboxamide], the fraction unbound at 0.5 mg/mL in data set [1] is 0.04. Moreover, in data set [2], the chromatographic logD came out at 4.2. The remaining activity at 0.1 µM in data set [3] (setting [12]) was 3%; in data set [5] (setting [13]) it was 2%; in data set [6] (setting [14]), 15%; in data set [7] (setting [15]), 39%.
For `CN[C@@H](C)C(=O)N[C@H](C(=O)N1C[C@@H](Oc2cccc(OCCCCCCOCCCCCCOCCCCCCOc3cc(-c4scnc4C)ccc3CNC(=O)[C@@H]3C[C@@H](O)CN3C(=O)[C@H](C(C)C)N3Cc4ccccc4C3=O)c2)C[C@H]1C(=O)N[C@@H]1CCCc2ccccc21)C1CCCCC1` [PROTAC 19, (2S,4S)-1-((S)-2-Cyclohexyl-2-((S)-2-(methylamino)propanamido)acetyl)-4-(3-((6-((6-((6-(2-(((2S,4R)-4-hydroxy-1-((S)-3-methyl-2-(1-oxoisoindolin-2-yl)butanoyl)pyrrolidine-2-carboxamido)methyl)-5-(4-methylthiazol-5-yl)phenoxy)hexyl)oxy)hexyl)oxy)hexyl)oxy)phenoxy)-N-((R)-1,2,3,4-tetrahydronaphthalen-1-yl)pyrrolidine-2-carboxamide], the “IAP degradation profile (in words)” value in data set [4] is on record as “dual cIAP1/XIAP degradation at 0.1 μM concentration; also recorded: pan-IAP degradation at 1 μM; also recorded: no degradation at 10 nM”. The same molecule showed a chromatographic logD in data set [2] of 6.3. Moreover, the remaining activity at 0.1 µM in data set [3] (setting [12]) worked out at 34%; in data set [5] (setting [13]), 27%; in data set [6] (setting [14]) it was 84%; in data set [7] (setting [15]), 95%.
